Reference: paper PMC5756575, “In Vitro Biotransformation, Safety, and Chemopreventive Action of Novel 8-Methoxy-Purine-2,6-Dione Derivatives” (Applied Biochemistry and Biotechnology, 2017)
Entries after “also recorded” stand apart in the source; their conditions may differ. Where two headings read alike, the source gives them in different places.

Assays:
[1] = tested on: Cunninghamella echinulata NRRL 1384; experiment: Cunninghamella biotransformation assay, C. echinulata; format: in vitro ADME; conditions: 0.5 mg/mL, 7-day incubation, LC-MS/MS
Protocol: (§1) Three different strains of Cunninghamella were used: Cunninghamella echinulata NRRL 1384, Cunninghamella blakesleeana 1908 DMS, and Cunninghamella elegans 1906 DMS. The first was provided by Dr. A.J. Carnell (University of Liverpool, UK), whereas the two remaining were purchased from Deutsche Sammlung von Mikroorganismen und Zellkulturen GmbH (DMSZ, Braunschweig, Germany).
(§2) Cunninghamella strains were cultivated on solid potato dextrose agar (PDA) plates at 28 °C. After 4 days, a liquid fermentation basal medium was prepared by the addition of 6 g of D-glucose, 1.5 g of NaCl, 1.5 g of yeast extract from Saccharomyces cerevisiae, and 1.5 g of K2HPO4 to 300 mL of distilled water. Aliquots of 24.5 mL of medium were inoculated with 300 μL of suspension of fungal spores obtained after wetting colonies in PDA. The fungi were incubated with shaking until the formation of spherical clumps.
(§3) Compounds 2–4 were evaluated in this experiment. Once microorganisms formed spherical clumps in the preliminary incubation, the corresponding tested compound was added to the broth and the mixture was incubated for 7 days. Two control experiments were also performed, in the absence of compound and fungus, respectively. Biotransformation progress was monitored by TLC and by liquid chromatography electrospray ionization-tandem mass spectrometry (LC-MS/MS). Monitoring was performed at four different incubation times: 30 min, 3 days, 5 days, and 7 days.
(§4) To analyze metabolites in LC-MS/MS, an aliquot of 500 μL of filtered sample was taken and extracted with 500 μL of dichloromethane. The organic fraction was dried with sodium sulfate, filtered, and evaporated. The obtained residue was analyzed in LC-MS/MS. At the end of experiment, all the remaining medium was extracted with 25 mL of dichloromethane after separating the fungal clumps by filtration over cellulose filters.
(§5) Agilent 1100 HPLC system (Agilent Technologies, Waldbronn, Germany) equipped with a Xbridge™ C18 analytical column (2.1 × 30 mm, […]; Waters, Dublin, Ireland) was used in the chromatographic separation of LC-MS/MS analysis. An elution gradient of acetonitrile and water, with 0.1% of formic acid, was used as a mobile phase. MS spectra were taken at Applied Biosystems MDS Sciex API 200 triple quadrupole mass analyzer (Concord, Ontario, Canada) with an electrospray ionization (ESI) interface between HPLC and MS.

[2] = tested on: Cunninghamella blakesleeana 1908 DMS; experiment: Cunninghamella biotransformation assay, C. blakesleeana; format: in vitro ADME; conditions: 0.5 mg/mL, 7-day incubation, LC-MS/MS
Protocol: as §1, §2, §3, §4, §5

[3] = tested on: Cunninghamella elegans 1906 DMS; experiment: Cunninghamella biotransformation assay, C. elegans; format: in vitro ADME; conditions: 0.5 mg/mL, 7-day incubation, LC-MS/MS
Protocol: as §1, §2, §3, §4, §5

[4] = tested on: Vibrio harveyi BB7XM; experiment: Vibrio harveyi mutagenicity assay, BB7XM; format: cell-based; conditions: 40 ng/mL; for MI (mutagenicity index): mutagenic if MI above 2.0; for Number of revertants per plate, Mean ± SD: mutagenicity
Protocol: (§6) From them, 0.2 mM working solutions were prepared by dilution with water. […] Working solutions were prepared by 1:100 dilution of stock solution in water, and final compound concentration assayed was 40 ng/mL.
(§7) Four Vibrio harveyi strains were used in this study: a wild-type BB7 (naturally found in the Baltic Sea) and three genetically modified strains, namely BB7M (obtained by the introduction of pAB1273 plasmid containing the genes mucA and mucB to enhance the error-prone DNA repair), BB7X (hypersensitive to UV radiation after genetic modification with Tn5TpMCS), and BB7XM (containing the two abovementioned modifications). These strains were kindly provided by Prof. G. Węgrzyn (Department of Molecular Biology, University of Gdańsk, Poland).
(§8) It causes point mutations at the genome as it induces G:C → A:T transitions in Vibrio harveyi strains and in other bacteria such as Escherichia coli and S. typhimurium. […] Next, its working solution was prepared in sterile water, being 40 ng/mL its final concentration.
(§9) To perform the V. harveyi mutagenicity test, 10 μL of a working solution of the tested compound (100 μg/mL) were added to V. harveyi bacterial culture (OD600 = 0.1) in NaCl-containing BOSS liquid medium, being 40 ng/mL the final concentration of the tested compound. […] Then, an inoculum containing 5 × 10^6 cells was added to solid BOSS agar plate supplemented with neomycin sulfate at a final concentration of 100 μg/mL. Samples were left incubating 48 h at 30 °C, and revertant colonies were counted manually.

[5] = tested on: rat liver microsomes; experiment: Microsomal stability assay; format: in vitro ADME; conditions: rat liver microsomes, 1 h of incubation
Protocol: Compounds 1 and 3 were studied in a biotransformation assay using rat liver microsomes following procedures described previously. The reagents used in this assay were levallorphan (internal standard) and NADPH-regenerating system, which contained phosphate buffer (pH 7.4), NADP^+, glucose-6-phosphate, and glucose-6-phosphate dehydrogenase. The final protein concentration in the assay was 0.4 mg/mL. Compounds 1 and 3 were tested at a final concentration of 20 μM.
The amount of a parental compound remaining in a solution after biotransformation was monitored using LC-MS/MS as described previously in “Cunninghamella Biotransformation Assay.” Graphs representing ln of percentage of parent compound remaining versus incubation time were drawn to calculate in vitro half-time (t1/2) from the slope of linear regression. To obtain intrinsic clearance (Clint) of a tested compound in rat liver microsomal assay, t1/2 previously calculated was substituted at the equation Clint = [(Vmic/Pmic) × 0.693/t1/2], being Vmic and Pmic the volume of incubation in microliters and the amount of incubated protein in milligrams, respectively.
as §5

[6] = tested on: Vibrio harveyi BB7X; experiment: Vibrio harveyi antimutagenicity assay against NQNO, BB7X; format: cell-based; conditions: compound 40 ng/mL + NQNO 40 ng/mL; for Number of revertants per plate, Mean ± SD: antimutagenicity, NQNO line = NQNO as a single compound
Text: as §7, §8
(§10) Procedure followed in the V. harveyi antimutagenicity assay was similar to the mutagenicity method described before. […] The results were expressed as the inhibition percentage of mutagenic effect, which was calculated with the formula: 100 − [(R 1/R 2) × 100], where R 1 is the number of revertants per plate in the presence of both mutagen and tested substance, and R 2 is the number of revertants per plate in the presence of mutagen. […] S. typhimurium antimutagenicity assay was based on similar assumptions as the V. harveyi antimutagenicity test. In this case, the chemopreventive activity was determined at two concentrations of a tested compounds and a standard mutagen, i.e., 40 and 500 ng/mL.

[7] = tested on: Vibrio harveyi BB7X; conditions: 40 ng/mL; for MI (mutagenicity index): mutagenic if MI above 2.0; for Number of revertants per plate, Mean ± SD: mutagenicity
Protocol: as §6, §7, §8, §9

[8] = tested on: Vibrio harveyi BB7M; conditions: 40 ng/mL; for MI (mutagenicity index): mutagenic if MI above 2.0; for Number of revertants per plate, Mean ± SD: mutagenicity
Protocol: as §6, §7, §8, §9

[9] = tested on: Vibrio harveyi BB7; conditions: BB7, 40 ng/mL; for MI (mutagenicity index): mutagenic if MI above 2.0; for Number of revertants per plate, Mean ± SD: mutagenicity
Protocol: as §6, §7, §8, §9

[10] = tested on: Vibrio harveyi BB7; experiment: Vibrio harveyi antimutagenicity assay against NQNO, BB7; format: cell-based; conditions: for % inhibition of NQNO mutagenicity / Number of revertants per plate, Mean ± SD: BB7, compound 40 ng/mL + NQNO 40 ng/mL; for Number of revertants per plate, Mean ± SD: antimutagenicity, NQNO line = NQNO as a single compound; for chemopreventive (antimutagenic) effect, class: wild BB7 strain, against NQNO
Text: as §7, §8, §10

[11] = tested on: Vibrio harveyi BB7M; experiment: Vibrio harveyi antimutagenicity assay against NQNO, BB7M; format: cell-based; conditions: compound 40 ng/mL + NQNO 40 ng/mL; for Number of revertants per plate, Mean ± SD: antimutagenicity, NQNO line = NQNO as a single compound
Text: as §7, §8, §10

[12] = tested on: Vibrio harveyi BB7XM; format: cell-based; conditions: compound 40 ng/mL + NQNO 40 ng/mL; for Number of revertants per plate, Mean ± SD: antimutagenicity, NQNO line = NQNO as a single compound
Text: as §7, §8, §10

[13] = tested on: Salmonella typhimurium TA100; experiment: S. typhimurium antimutagenicity assay against NQNO; format: cell-based; conditions: for Number of revertants per plate, Mean ± SD: antimutagenicity, NQNO line = NQNO as a single compound
Text: (§11) In the Ames test, Salmonella typhimurium TA100 strain was used. This strain has a base-pair substitution that can be reverted by mutations at GC pairs. In addition, it contains mutations at uvrB-bio and rfa genes to eliminate excision repair mechanisms and to make the bacteria more permeable to chemicals, respectively. Finally, TA100 also includes pKM101 plasmid, which enhances both chemical and UV-induced mutagenesis via an increase in the error-prone recombinational DNA repair pathway. TA100 strain of S. typhimurium was provided by Dr. T. Nohmi (Division of Genetics and Mutagenesis, National Institute of Hygienic Sciences, Tokyo, Japan). V. harveyi and S. typhimurium bacterial cultures were maintained at 30 and 37 °C, respectively.
as §8, §10

[14] = tested on: Salmonella typhimurium TA100; experiment: Ames mutagenicity test; format: cell-based
Protocol: From them, 0.2 mM working solutions were prepared by dilution with water. […]
as §11
It causes point mutations at the genome as it induces G:C → A:T transitions in Vibrio harveyi strains and in other bacteria such as Escherichia coli and S. typhimurium. […]
S. typhimurium was cultivated in a fresh medium 12 h prior to a test. To perform mutagenicity assay, 100 μL of an overnight culture (containing approx. 1 × 10^8 to 2 × 10^8 bacteria) were inoculated along with 50 μL of a tested compound in 2 mL of top agar supplemented with traces of histidine and of biotin. Then the mixture was added over the surface of GM agar plates and was left incubating 48 h at 37 °C. Afterwards, the colonies were counted manually.

[15] = tested on: Cunninghamella strains; experiment: Cunninghamella biotransformation assay, three strains together and blank without fungus; format: in vitro ADME; conditions: three strains, LC-MS/MS
Protocol: as §1, §2, §3, §4
Agilent 1100 HPLC system (Agilent Technologies, Waldbronn, Germany) equipped with a Xbridge™ C18 analytical column (2.1 × 30 mm, […]; Waters, Dublin, Ireland) was used in the chromatographic separation of LC-MS/MS analysis. […]

[16] = TA100, compound and NQNO 40 ng/mL
[17] = TA100, compound and NQNO 500 ng/mL
[18] = TA100, 40 ng/mL, mutagenic if MI >2.0
[19] = TA100, 500 ng/mL (NQNO control stated as 40 ng/mL in method)

| Structure (SMILES) | % of compound/metabolite in C. echinulata [1] [%] | % of compound/metabolite in C. blakesleeana [2] | % of compound/metabolite in C. elegans [3] | MI (mutagenicity index) [4] | Number of revertants per plate, Mean ± SD [4] | Number of revertants per plate, Mean ± SD [6] | % inhibition of NQNO mutagenicity [6] [%] | MI (mutagenicity index) [7] | Number of revertants per plate, Mean ± SD [7] | MI (mutagenicity index) [8] | Number of revertants per plate, Mean ± SD [8] | MI (mutagenicity index) [9] | Number of revertants per plate, Mean ± SD [9] | % inhibition of NQNO mutagenicity [10] [%] | Number of revertants per plate, Mean ± SD [10] | chemopreventive (antimutagenic) effect, class [10] | Number of revertants per plate, Mean ± SD [11] | % inhibition of NQNO mutagenicity [11] [%] | Number of revertants per plate, Mean ± SD [12] | % inhibition of NQNO mutagenicity [12] [%] | other results |
| --- | --- | --- | --- | --- | --- | --- | --- | --- | --- | --- | --- | --- | --- | --- | --- | --- | --- | --- | --- | --- | --- |
| COc1nc2c(c(=O)n(C)c(=O)n2C)n1CCCC(=O)NCc1ccc(O)cc1 [3-M4] | 4.2 | – – – 4.6% | – – – 0.6% | – | – | – | – | – | – | – | – | – | – | – | – | – | – | – | – | – | – |
| COc1nc2c(c(=O)n(C)c(=O)n2C)n1CCCC(=O)N1CCN(c2ccc(O)cc2)CC1 [4-M1] | 87.6 | 66.6% | 53.0% | – | – | – | – | – | – | – | – | – | – | – | – | – | – | – | – | – | – |
| COc1nc2c(c(=O)n(C)c(=O)n2C)n1CC(=O)O [Compound 1, 2-(8-methoxy-1,3-dimethyl-2,6-dioxo-purin-7-yl)acetic acid] | – | – | – | 1.1 | 37 ± 11 | 28 ± 7 | 74 | 1.4 | 30 ± 1 | 1.2 | 33 ± 8 | 0.9 | 12 ± 2 | 20 | 44 ± 6 | moderate or a close to moderate | 60 ± 10 | 39 | 69 ± 10 | 10 | metabolic stability in microsomal biotransformation (in words) [5]: metabolically stable; % inhibition of NQNO mutagenicity [13, 16]: 88%; % inhibition of NQNO mutagenicity [13, 17]: 95%; Number of revertants per plate, Mean ± SD [13, 16]: 10 ± 3; Number of revertants per plate, Mean ± SD [13, 17]: 5 ± 3; Number of revertants per plate, Mean ± SD ([14]; TA100, 40 ng/mL): 12 ± 5; MI (mutagenicity index) [14, 18]: 0.3; MI (mutagenicity index) [14, 19]: 0.6; Number of revertants per plate, Mean ± SD [14, 19]: 16 ± 3 |
| COC(=O)Cn1c(OC)nc2c1c(=O)n(C)c(=O)n2C [Compound 2, methyl 2-(8-methoxy-1,3-dimethyl-2,6-dioxo-purin-7-yl)acetate] | – | – | – | 1.6 | 53 ± 8 | 35 ± 6 | 68 | 1.2 | 27 ± 2 | 1.3 | 36 ± 9 | 1.2 | 15 ± 2 | 38 | 34 ± 7 | moderate or a close to moderate | 45 ± 10 | 54 | 68 ± 8 | 12 | % inhibition of NQNO mutagenicity [13, 16]: 92%; % inhibition of NQNO mutagenicity [13, 17]: 91%; Number of revertants per plate, Mean ± SD [13, 16]: 7 ± 2; Number of revertants per plate, Mean ± SD [13, 17]: 9 ± 4; biotransformation / detectable metabolites in Cunninghamella model (in words) [15]: did not undergo any biotransformation; also recorded: None of the three Cunninghamella strains evaluated generated detectable metabolites; Number of revertants per plate, Mean ± SD ([14]; TA100, 40 ng/mL): 10 ± 3; MI (mutagenicity index) [14, 18]: 0.3; MI (mutagenicity index) [14, 19]: 0.5; Number of revertants per plate, Mean ± SD [14, 19]: 14 ± 5 |
